Measured values taken from article PMC7195552 (Journal of Burn Care & Research: Official Publication of …, 2020).
Read-outs that look alike come from different tables or passages of the source.

How the values were obtained:
[1] = Creatine phosphokinase levels and adverse events during daptomycin treatment; assay type: in vivo, human
Source text: The level returned to a normal value without discontinuation of daptomycin treatment. There were no significant CPK differences in the indicated time points between the groups (Table 8).

[2] = Hepatorenal function index of patients after daptomycin medication; conditions: 12 mg/kg/d, average ± SD n = 7, patients received supplemental plasma albumin
Method: All statistical analyses were conducted using SAS™ 9.3 software (Cary, NC) and a P value <.05 was considered to be statistically significant.

[3] = Plasma pharmacokinetics of daptomycin in patients with severe burn injuries (LC-MS/MS, DAS 2.0); assay type: in vivo, human; conditions: for half-life: read-out: t(h)½ (converted)
Method: Multiple-dose medication treatment means that daptomycin was administered to burn injury patients as one injection every day of either the standard dose or a high dose. […] During intravenous infusion, vigorous agitation or shaking during drug dissolution was not permitted, thus preventing the formation of gas bubbles. […] The samples were centrifuged and stored at −80°C until required for analysis. PK evaluation was performed by measuring the daptomycin levels in blood samples, using liquid chromatography–mass spectrometry/mass spectrometry (LC-MS/MS) (Waters Micromass Quattro Micro API LC-MS/MS). Chromatographic separation was performed at 35°C using a RP-C18 (Welch Ultimate, 3.0 mm × 150 mm) analytical column. […] PK parameters were calculated using DAS 2.0. […] The maximum plasma concentration (Cmax) and the time at which it occurred (Tmax) were determined directly from the measured plasma concentration–time without interpolation. […] The total body clearance (CL) was obtained from dose/AUC0–∞. The volume of distribution (Vd) was calculated using the equation CL/Ke.

[4] = patient 1, 12 mg/kg/d iv, multiple dose
[5] = patient 1, 12 mg/kg/d iv, single dose
[6] = patient 2, 12 mg/kg/d iv, multiple dose
[7] = patient 2, 12 mg/kg/d iv, single dose
[8] = patient 3, 12 mg/kg/d iv, multiple dose
[9] = patient 3, 12 mg/kg/d iv, single dose
[10] = patient 4, 12 mg/kg/d iv, multiple dose
[11] = patient 4, 12 mg/kg/d iv, single dose
[12] = patient 5, 12 mg/kg/d iv, multiple dose
[13] = patient 5, 12 mg/kg/d iv, single dose
[14] = patient 6, 12 mg/kg/d iv, multiple dose
[15] = patient 6, 12 mg/kg/d iv, single dose
[16] = patient 7, 12 mg/kg/d iv, multiple dose
[17] = patient 7, 12 mg/kg/d iv, single dose
[18] = patient 8, 6 mg/kg/d iv, multiple dose
[19] = patient 8, 6 mg/kg/d iv, single dose
[20] = patient 9, 6 mg/kg/d iv, multiple dose
[21] = patient 9, 6 mg/kg/d iv, single dose
[22] = patient 10, 6 mg/kg/d iv, multiple dose
[23] = patient 10, 6 mg/kg/d iv, single dose

CCCCCCCCCC(=O)N[C@@H](Cc1c[nH]c2ccccc12)C(=O)N[C@H](CC(N)=O)C(=O)N[C@@H](CC(=O)O)C(=O)N[C@@H]1C(=O)NCC(=O)N[C@@H](CCCN)C(=O)N[C@@H](CC(=O)O)C(=O)N[C@H](C)C(=O)N[C@@H](CC(=O)O)C(=O)NCC(=O)N[C@H](CO)C(=O)N[C@@H]([C@H](C)CC(=O)O)C(=O)N[C@@H](CC(=O)c2ccccc2N)C(=O)O[C@@H]1C [daptomycin]
serious adverse events or treatment discontinuations ([1]; 12 mg/kg/d iv once daily, entire study period): no serious adverse events or treatment discontinuations | CPK adverse reaction ([1]; patient no. 3, high-dose, day 3, returned to normal without discontinuation): transient increase of CPK | serious adverse events and nonserious AEs leading to discontinuation ([1]; whole study, 6 or 12 mg/kg/d for 7 to 14 days, 10 patients): No serious adverse events | Alb after daptomycin treatment (7 days) [2]: 40.5 ± 4.6 g/L | CL ([3]; 6 mg/kg/d iv, multiple dose (day 6), average ± SD n = 3, SD): 24.7 ± 11.8 mL/h/kg | V d ([3]; 12 mg/kg/d iv, multiple dose (day 6), average ± SD n = 7, SD): 0.24 ± 0.11 L/kg | Tmax ([3]; human, in vivo, iv, 6 mg/kg): ~2 h | half-life ([3]; human, in vivo, iv, 6 mg/kg/d, 6 mg/kg/d iv, multiple dose (day 6), average ± SD n = 3, SD): 6.47 ± 1.34 h | half-life ([3]; human, in vivo, iv, 6 mg/kg/d, 6 mg/kg/d iv, single dose, average ± SD n = 3, SD): 5.64 ± 1 h | clearance ([3]; human, in vivo, iv, 12 mg/kg/d, 12 mg/kg/d iv, single dose, average ± SD n = 7, SD, read-out: CL (converted)): 0.375 mL/min/kg | half-life ([3]; human, in vivo, iv, 12 mg/kg/d, 12 mg/kg/d iv, single dose, average ± SD n = 7, SD): 7.4 ± 2.5 h | V d ([3]; human, in vivo, iv, V d, SD): 0.24 ± 0.1 L/kg | V d ([3]; human, in vivo, iv, SD): 0.19 ± 0.1 L/kg | clearance ([3]; human, in vivo, iv, SD): 0.403 mL/min/kg | AUC(0-t) ([3]; human, in vivo, 6 mg/kg/d iv, single dose, average ± SD n = 3, SD, read-out: AUC0–24): 255 ± 51.6 µg·h/mL | clearance ([3]; human, in vivo, 12 mg/kg/d iv, multiple dose (day 6), average ± SD n = 7, SD, read-out: CL (converted)): 0.33 mL/min/kg | t(h)½ ([3]; multiple doses, independent of the dose received (all patients)): 8.10 ± 1.91 h | AUC0–24 [3, 4]: 588.2 µg·h/mL | CL [3, 4]: 20.40 mL/h/kg | V d [3, 4]: 0.26 L/kg | t(h)½ [3, 4]: 8.8 h | AUC0–24 [3, 5]: 486.9 µg·h/mL | CL [3, 5]: 21.9 mL/h/kg | V d [3, 5]: 0.26 L/kg | AUC0–24 [3, 6]: 679.0 µg·h/mL | CL [3, 6]: 17.67 mL/h/kg | V d [3, 6]: 0.22 L/kg | t(h)½ [3, 6]: 8.5 h | AUC0–24 [3, 7]: 511.2 µg·h/mL | CL [3, 7]: 21.6 mL/h/kg | V d [3, 7]: 0.21 L/kg | t(h)½ [3, 7]: 0.5 h | AUC0–24 [3, 8]: 580.7 µg·h/mL | CL [3, 8]: 20.66 mL/h/kg | V d [3, 8]: 0.20 L/kg | t(h)½ [3, 8]: 6.7 h | AUC0–24 [3, 9]: 426.7 µg·h/mL | CL [3, 9]: 25.4 mL/h/kg | V d [3, 9]: 0.25 L/kg | t(h)½ [3, 9]: 0.5 h | AUC0–24 [3, 10]: 709.6 µg·h/mL | CL [3, 10]: 16.91 mL/h/kg | V d [3, 10]: 0.16 L/kg | t(h)½ [3, 10]: 6.6 h | AUC0–24 [3, 11]: 477.6 µg·h/mL | CL [3, 11]: 23.3 mL/h/kg | V d [3, 11]: 0.29 L/kg | t(h)½ [3, 11]: 0.5 h | AUC0–24 [3, 12]: 987.6 µg·h/mL | CL [3, 12]: 12.15 mL/h/kg | V d [3, 12]: 0.10 L/kg | t(h)½ [3, 12]: 5.7 h | AUC0–24 [3, 13]: 809.9 µg·h/mL | CL [3, 13]: 14.1 mL/h/kg | V d [3, 13]: 0.10 L/kg | t(h)½ [3, 13]: 1.5 h | AUC0–24 [3, 14]: 489.1 µg·h/mL | CL [3, 14]: 24.53 mL/h/kg | V d [3, 14]: 0.32 L/kg | t(h)½ [3, 14]: 9.1 h | AUC0–24 [3, 15]: 439.4 µg·h/mL | CL [3, 15]: 26.7 mL/h/kg | V d [3, 15]: 0.15 L/kg | t(h)½ [3, 15]: 0.5 h | AUC0–24 [3, 16]: 456.2 µg·h/mL | CL [3, 16]: 26.30 mL/h/kg | V d [3, 16]: 0.43 L/kg | t(h)½ [3, 16]: 11.3 h | AUC0–24 [3, 17]: 399.0 µg·h/mL | CL [3, 17]: 24.3 mL/h/kg | V d [3, 17]: 0.41 L/kg | t(h)½ [3, 17]: 0.5 h | AUC0–24 [3, 18]: 394.7 µg·h/mL | CL [3, 18]: 17.57 mL/h/kg | V d [3, 18]: 0.15 L/kg | t(h)½ [3, 18]: 6.093 h | AUC0–24 [3, 19]: 273.7 µg·h/mL | CL [3, 19]: 21.92 mL/h/kg | V d [3, 19]: 0.14 L/kg | t(h)½ [3, 19]: 4.97 h | AUC0–24 [3, 20]: 249.5 µg·h/mL | CL [3, 20]: 38.32 mL/h/kg | V d [3, 20]: 0.44 L/kg | t(h)½ [3, 20]: 7.958 h | AUC0–24 [3, 21]: 197.0 µg·h/mL | CL [3, 21]: 30.45 mL/h/kg | V d [3, 21]: 0.27 L/kg | t(h)½ [3, 21]: 6.737 h | AUC0–24 [3, 22]: 330.3 µg·h/mL | CL [3, 22]: 18.16 mL/h/kg | V d [3, 22]: 0.14 L/kg | t(h)½ [3, 22]: 5.349 h | AUC0–24 [3, 23]: 295.2 µg·h/mL | CL [3, 23]: 20.32 mL/h/kg | V d [3, 23]: 0.15 L/kg | t(h)½ [3, 23]: 5.377 h
